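Five concentrations, 48 hours, 96-well plates. GI50 is the concentration that inhibits growth by half. Definition used: TGI = concentration required for complete inhibition of growth.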

Among the test systems are A549 NSCLC; ACHN renal; BT-549 breast; DU-145 prostate; KM12 colon; MCF7 breast; NCI-H226 lung; PC-3 prostate; T-47D breast; TK-10 renal.
Experiment in all cases: DTP human tumour cell line panel, 48 h

Take `COC(=O)[C@H](C[C@H](Cc1ccccc1)NC(=O)c1csc([C@@H](C[C@H](C(C)C)N(C)C(=O)[C@@H](NC(=O)[C@H]2CCCCN2C)C(C)C)OC(C)=O)n1)NC(=O)OCc1ccccc1`: the 50% growth inhibitory concentration (GI50) (as a rule, the concentration that inhibits growth by half) with A549 NSCLC is 0.00156 µM; in the test on ACHN renal, 0.00243 µM; in the test on BT-549 breast, less than 0.0009 µM; with DU-145 prostate, less than 0.0009 µM; in the test with KM12 colon, less than 0.0009 µM; with MCF7 breast it was less than 0.0009 µM. For the same molecule, the GI50 in the test with NCI-H226 lung is 0.00144 µM; in the test on PC-3 prostate, less than 0.0009 µM; with T-47D breast, less than 0.0009 µM; in the test on TK-10 renal, 0.11 µM. Moreover, the total growth inhibition concentration (TGI) – broadly, the concentration at which net growth stops – is greater than 9 µM with A549 NSCLC; greater than 9 µM in the test on ACHN renal; 0.0689 µM in the test with BT-549 breast; 1.31 µM in the test with DU-145 prostate; greater than 9 µM in the test with KM12 colon; greater than 9 µM in the test with MCF7 breast. The TGI in the test on NCI-H226 lung was 0.0799 µM; with PC-3 prostate, greater than 9 µM; with T-47D breast, greater than 9 µM; in the test on TK-10 renal it was greater than 9 µM.

`COc1ccc2c(c1)/C(=C\c1c(C)nc3sccn13)C(=O)N2`: the GI50 with A549 NSCLC is 0.155 µM; with DU-145 prostate, 0.55 µM; in the test on KM12 colon, less than 0.0402 µM; with NCI-H226 lung, 6.55 µM; in the test on PC-3 prostate it was 0.179 µM; in the test on T-47D breast, 1.98 µM. Besides, the TGI was greater than 100 µM in the test with A549 NSCLC; 69.4 µM with ACHN renal; greater than 82.9 µM with BT-549 breast; greater than 100 µM with DU-145 prostate; 25.5 µM in the test on KM12 colon; greater than 100 µM in the test on MCF7 breast. Besides, the TGI in the test with NCI-H226 lung was 74.4 µM; with PC-3 prostate, greater than 100 µM; in the test with T-47D breast, greater than 67.2 µM; in the test with TK-10 renal it was greater than 63.5 µM.

As to `CC[C@@H](C(=O)O)C1CC[C@H](C)C([C@@H](C)[C@H](O)[C@H](C)C(=O)[C@H](CC)C2O[C@]3(C=C[C@@H](O)[C@]4(CC[C@@](C)(C5CC[C@](O)(CC)[C@H](C)O5)O4)O3)[C@H](C)C[C@@H]2C)O1` (stereo partly specified), the GI50 with A549 NSCLC was 0.282 µM; with ACHN renal, 0.504 µM; with BT-549 breast, 0.184 µM; with DU-145 prostate, 0.805 µM; in the test with KM12 colon, 0.893 µM; in the test with MCF7 breast, 0.11 µM. For the same molecule, the GI50 was 1.19 µM in the test on NCI-H226 lung, 0.0657 µM with PC-3 prostate, 0.371 µM in the test on T-47D breast and 0.987 µM in the test with TK-10 renal. For the same molecule, the TGI in the test on A549 NSCLC was 14.1 µM; with ACHN renal it was 27.5 µM; in the test with BT-549 breast, 3.19 µM; in the test with DU-145 prostate, 32.4 µM; in the test with KM12 colon, 11.9 µM; in the test with MCF7 breast, 13.9 µM. The TGI was 10.8 µM in the test with NCI-H226 lung, 45.8 µM in the test on PC-3 prostate, 16 µM in the test with T-47D breast and 39.4 µM in the test with TK-10 renal.

Consider `CCc1nccc2c1nc(-c1nonc1N)n2CC`, for which the GI50 with A549 NSCLC was greater than 25 µM; in the test with ACHN renal it was greater than 23.2 µM; with BT-549 breast, greater than 23.3 µM; in the test with DU-145 prostate, greater than 25 µM; with KM12 colon, greater than 25 µM; with MCF7 breast, greater than 25 µM. The GI50 with NCI-H226 lung was greater than 18 µM; in the test on PC-3 prostate it was greater than 25 µM; in the test on T-47D breast it was greater than 25 µM; in the test on TK-10 renal, 7.83 µM. Also, the total growth inhibition concentration (TGI) in the test on A549 NSCLC, in the test on ACHN renal, in the test with BT-549 breast, in the test with DU-145 prostate, in the test on KM12 colon and in the test on MCF7 breast was greater than 25 µM in each case. For the same molecule, the TGI with NCI-H226 lung, in the test with PC-3 prostate, in the test with T-47D breast and in the test on TK-10 renal was greater than 25 µM throughout.

As for `CN(C)CCCNC(CC#N)CCC#N` (stereo unspecified), the TGI in the test with A549 NSCLC, in the test with ACHN renal, in the test with BT-549 breast, in the test on DU-145 prostate, in the test on KM12 colon and in the test with MCF7 breast was greater than 10 µM throughout. For the same molecule, the TGI with NCI-H226 lung, in the test on PC-3 prostate, in the test on T-47D breast and in the test with TK-10 renal was greater than 10 µM throughout.

With `O=C(NCCCCCCNC(=O)n1cc(F)c(=O)[nH]c1=O)NCCCOCCOCCOCCOCCOCCOCCOCCOCCOCCOCCOCCOCCOCCOCCOCCOCCOCCOCCOCCOCCOCCCNC(=O)C(O)C(O)C(O)C(O)CO` (stereo unspecified), the TGI in the test on A549 NSCLC was greater than 100 µM; with ACHN renal, greater than 100 µM; with BT-549 breast, greater than 100 µM; in the test with DU-145 prostate, greater than 100 µM; with KM12 colon it was greater than 100 µM; in the test on MCF7 breast it was greater than 62 µM. Moreover, the TGI in the test with NCI-H226 lung, in the test on PC-3 prostate, in the test with T-47D breast and with TK-10 renal was greater than 100 µM in each case.

Regarding `Oc1cccc2ccc(N/N=C/c3cc(CN4CCCCC4)c(O)c4ncccc34)nc12`, the concentration for 50% growth inhibition (GI50) in the test with A549 NSCLC is 0.0365 µM; in the test on ACHN renal, 0.0344 µM; with BT-549 breast it was 0.0574 µM; with DU-145 prostate, 0.109 µM; with KM12 colon, 0.0449 µM; in the test with MCF7 breast, 0.034 µM. Besides, the GI50 in the test with NCI-H226 lung was 0.41 µM; in the test with PC-3 prostate, 0.0417 µM; in the test with T-47D breast it was 0.192 µM; in the test on TK-10 renal, 0.0527 µM. Also, the total growth inhibition concentration (TGI) with A549 NSCLC was 1.15 µM; with ACHN renal, 1.19 µM; with BT-549 breast it was 6.02 µM; with DU-145 prostate, 3.18 µM; in the test on KM12 colon, 1.85 µM; in the test on MCF7 breast, 1.28 µM. The TGI in the test on NCI-H226 lung was found to be 2.9 µM; in the test with PC-3 prostate, 1.86 µM; in the test on T-47D breast it was 14.9 µM; in the test with TK-10 renal, 11 µM.

`Nc1ccccc1C#C/C=C\C#Cc1cccs1`: the GI50 with A549 NSCLC was 10.4 µM; in the test with ACHN renal it was 15.9 µM; with BT-549 breast, 12.2 µM; in the test on DU-145 prostate, 10.2 µM; in the test with KM12 colon it was 5.66 µM; with MCF7 breast, 2.34 µM. For the same molecule, the GI50 was 2.22 µM in the test on NCI-H226 lung, 4.48 µM in the test with PC-3 prostate, 17.4 µM in the test on T-47D breast and 17.3 µM with TK-10 renal. The TGI in the test on A549 NSCLC is greater than 42.5 µM; in the test on ACHN renal, 58.3 µM; with BT-549 breast it was 28.7 µM; in the test with DU-145 prostate, 31.6 µM; in the test on KM12 colon it was 25.6 µM; in the test on MCF7 breast, greater than 100 µM. Besides, the TGI was 16.9 µM in the test with NCI-H226 lung, 27.3 µM in the test on PC-3 prostate, 48.2 µM in the test with T-47D breast and 39.8 µM with TK-10 renal.

(Values after PubChem BioAssay (NCI).)
